Values quoted from earlier work in patent publication US20020001575A1, “Nutritional system for nervous system disorders” (priority 2000, published 2002).

Details: autistic children and adults, 18 consecutive studies 1965-1996

Substance: Vitamin B-6
- helpfulness in autism: helpful in almost half of all autistic children and adults
